According to patent publication US20060148876A1, “Nr3b1 nuclear receptor binding 3-substituted pyrazoles” (priority 2002, published 2006):
Entries after “also recorded” stand apart in the source; their conditions may differ.

Key:
MDA-MB-231 cells = experiment: Cell proliferation assay (CellTiter 96) in ER negative breast cancer cells; format: cell-based; conditions: 6 days treatment
Description: (§1) Cells were seeded in 96-well plates at a density of 15,000 (MDA-MB-231) or 10,000 (T47D) cells/100 μl/well in phenol red-free DMEM (Gibco-BRL) containing 10% (MDA-MB-231) or 2% (T47D) charcoal dextran treated FBS (Perbio Science GmbH). Treatment media containing either 0.1% DMSO (control) or 0.1% DMSO with increasing concentrations of compounds (as indicated) were added on the following day and replaced at 72 h intervals until the end of the experiment. At 6 days (MDA-MB-231) or 8 days (T47D) after initiation of the treatment a colorimetric proliferation assay was performed using CellTiter 96 Aqueous nonradioactive proliferation assay as directed by the manufacturer (Promega). Cell proliferation rates were measured as absorbance of the formazan product at 490 nm. Values are expressed as percentage of control (DMSO) and represent the means of three replicates.

T47D cells = experiment: Cell proliferation assay (CellTiter 96) in ER positive breast cancer cells; format: cell-based; conditions: 8 days treatment, 1 nM to 100 nM
Description: as §1

human ERR alpha (NR3B1) = experiment: In vitro LANCE (TR-FRET) screening for compounds which influence ERRa binding to coactivator SRC1 peptide; format: biochemical; conditions: see figures
Description: The present invention relates to a compound as described above wherein said compounds is capable of binding the NR3B1 receptor protein or a portion thereof according to SEQ ID NO. 1 (cf. FIG. 3 A to D) or a mammalian homologue thereof. The claimed compound can bind to the NR3B1 receptor protein or a portion thereof in a mixture comprising 10-200 ng of NR3B1 receptor protein or a portion thereof, preferably the ligand binding domain, 20 mM Tris/HCl at pH 7.9; 60 mM KCl; 5 mM MgCl2; 160 ng/μl BSA in a total volume of preferably about 25 μl.
For screening purposes a fragment of the open reading frame of human ERR alpha (NR3B1-(Acc. No: NM_004451)) encoding aminoacids […] was amplified by standard RT PCR procedures (see figures; SEQ ID NO. 1 and 2). […]
For screening of compound libraries as provided for by the methods shown below in the examples for substances which influence the ERRa/SRC1 interaction, the Perkin Elmer LANCE technology was applied. […] For ease of handling and reduction of background from compound fluorescence LANCE technology makes use of generic fluorophore labels and time resoved detection (for detailed description see Hemmilä I, Blomberg K and Hurskainen P, Time-resolved resonance energy transfer (TRFRET) principle in LANCE, Abstract of Papers Presented at the 3 rd Annual Conference of the Society for Biomolecular Screening, September, California (1997)). […]

SMILES	effect on proliferation of MDA-MB-231 cells (ER negative) (MDA-MB-231 cells)	effect on proliferation of T47D cells (ER positive) (T47D cells)	effect on proliferation of T47D cells (ER positive) (T47D cells; listed as E2)	active as antagonist of the NR3B1 human nuclear receptor (human ERR alpha (NR3B1))
C[C@]12CC[C@@H]3c4ccc(O)cc4CC[C@H]3[C@@H]1CC[C@@H]2O [17β-estradiol]	did not	stimulated	stimulate the growth	
CC/C(=C(/CC)c1ccc(O)cc1)c1ccc(O)cc1 [DES, Diethylstilbestrol]	inhibited proliferation; also recorded: inhibit growth	stimulated; also recorded: stimulate the growth		
Cc1ccc(C)c(-c2cc(-c3ccc(O)cc3)nn2C)c1 [formula 5]				active as antagonist
Cc1cc(C)cc(-n2nc(-c3ccc(O)cc3)cc2-c2ccc(C)o2)c1 [formula 6]				active as antagonist
